Results from the supplement of paper PMC3493320.
Where “and” joins values, the source holds several entries; their conditions need not be identical. Equal entries are not always repeated.

Columns and labels:
[1] = test system: NCI-H295R; assay: IC50 (antiproliferative, ATP content); settings: 48 h
[2] = test system: NCI-H295R; assay: maximal response (efficacy) relative to DMSO (0%) and doxorubicin (-100%); higher = less growth inhibition; settings: 48 h

Row | SMILES | IC50 [1] | maximal response [2]
1 | COc1cc(NCc2ccc3nc(N)nc(N)c3c2C)cc(OC)c1OC.Cl.Cl.Cl | 0.0133 µM | -80.4%
2 | O=[N+]([O-])c1ccc(O)c2ncccc12 | 3.35 µM | -85.4%
3 | O=C(Nc1ccc(Oc2ccc(Cl)cc2)c(Cl)c1)c1cc(I)cc(I)c1O | 4.73 µM | -137%
4 | C[n+]1cc2c3c(ccc2c2ccc4cc5c(cc4c21)OCO5)OCO3 | 4.73 µM | -119%
5 | CC(C)(C)c1ccc(C(=O)CCCN2CCC(OC(c3ccccc3)c3ccccc3)CC2)cc1 | 16.8 µM | -139%
6 | CC[C@@H](C(=O)[C@@H](C)[C@@H](O)[C@H](C)CCc1ccc(C)c(O)c1C(=O)[O-])[C@H]1O[C@](CC)([C@H]2CC[C@](O)(CC)[C@H](C)O2)C[C@@H]1C.[Na+] | 23.7 µM | -159%
7 | COc1cc(C(=O)NS(=O)(=O)c2ccccc2C)ccc1Cc1cn(C)c2ccc(NC(=O)OC3CCCC3)cc12 | 21.1 µM | -134%
8 | CCCCCCCCCCCCOCCOCCOCCOCCOCCOCCOCCOCCOCCO | 21.1 µM | -147%
9 | C[CH2][Hg][S]c1ccccc1C(=O)[O-].[Na+] | 2.66 µM | -124%
10 | O[C@H]2C[C@@H](O[C@H](C)[C@H]2O[C@@H]3O[C@H](C)[C@@H](O[C@H]4C[C@H](O)[C@H](OC)[C@@H](C)O4)[C@@H](O)C3)O[C@H]1CC[C@@]5(C)[C@@](CC[C@]6([H])[C@@]([H])5C[C@@H](O)[C@@]7(C)[C@@](O)6CC[C@@H]7[C@@](CO8)=CC8=O)([H])C1 | 0.237 µM | -111%
11 | COP(=S)(OC)Oc1ccc(Sc2ccc(OP(=S)(OC)OC)cc2)cc1 | 21.1 µM | -96.4%
12 | COc1ccc(C=CC(=O)c2ccc(OC)cc2OC)cc1 | 23.7 µM | -117%
13 | CCc1nc(N)nc(N)c1-c1ccc(Cl)cc1 | 0.75 µM | -81.4%
14 | O[C@]([C@@]([H])2CC3)(CC[C@@H]4[C@@](CO5)=CC5=O)[C@]4(C)C[C@@H](O)[C@]2([H])[C@]1(CO)[C@@]3(O)C[C@@H](O[C@H]6[C@H](O)[C@H](O)[C@@H](O)[C@H](C)O6)C[C@H]1O | 0.0841 µM and 0.106 µM | -111% and -116%
15 | Oc1ccc(Cl)cc1Sc1cc(Cl)ccc1O | 15 µM | -135%
16 | C=C1/C(=C\C=C2/CCC[C@]3(C)[C@@H]([C@H](C)CCCC(C)(C)O)CC[C@@H]23)C[C@@H](O)C[C@@H]1O | 18.8 µM | -140%
17 | O=S(=O)([O-])c1cc(O)c2c(N=Nc3ccc(Nc4ccccc4)c4c(S(=O)(=O)[O-])cccc34)cc(S(=O)(=O)[O-])cc2c1.[Na+].[Na+].[Na+] | 11.9 µM | -73.8%
18 | N=C(N)NN=C(/C=C/c1ccc([N+](=O)[O-])o1)/C=C/c1ccc([N+](=O)[O-])o1 | 5.31 µM | -124%
19 | CC[C@H](C)[C@H]1O[C@]2(CC[C@@H]1C)C[C@@H]1C[C@@H](C/C=C(\C)[C@@H](O[C@H]3C[C@H](OC)[C@@H](O[C@H]4C[C@H](OC)[C@@H](O)[C@H](C)O4)[C@H](C)O3)[C@@H](C)/C=C/C=C3\CO[C@@H]4[C@H](O)C(C)=C[C@@H](C(=O)O1)[C@]34O)O2 | 4.22 µM | -123%
20 | CNC(=O)c1cc(Oc2ccc(NC(=O)Nc3ccc(Cl)c(C(F)(F)F)c3)cc2)ccn1.Cc1ccc(S(=O)(=O)O)cc1 | 10.6 µM | -129%
21 | COC(=O)C[C@](O)(CCCC(C)(C)O)C(=O)O[C@@H]1C(OC)=C[C@]23CCCN2CCc2cc4c(cc2[C@H]13)OCO4 | 0.211 µM | -125%
22 | C[C@]12O[C@H](C[C@]1(O)CO)n1c3ccccc3c3c4c(c5c6ccccc6n2c5c31)CNC4=O | 18.8 µM | -150%
23 | CCN1/C(=C\C=C\c2ccc3ccccc3[n+]2CC)C=Cc2ccccc21.[I-] | 23.7 µM | -134%
24 | CC(C)C[C@H](NC(=O)[C@H](Cc1ccccc1)NC(=O)c1cnccn1)B(O)O | 0.299 µM and 0.335 µM | -74.3% and -77.1%
25 | CCCCCCCCCCCCCC[N+](C)(C)C.[Br-] | 23.7 µM | -160%
26 | CN(C)C3=CC=C(C=C3)/C(C2=CC=C(N(C)C)C=C2)=C(C=C1)/C=C/C1=N/C | 21.1 µM | -167%
27 | CCN1C(=CC=Cc2sc3ccccc3[n+]2CC)Sc2ccccc21.[I-] | 15 µM | -149%
